Experimental data reported in patent publication US10471139B2, “Toll-like receptor agonists” (The University of Kansas, priority 2013, dated 2019).
Values belong to the compound of their own block, whether it stands above or below them.

Key:
[1] = system: human natural killer (NK), cytokine-induced killer (CIK) and nominal B lymphocytes; test: Flow-cytometric CD69 upregulation in lymphocytic subsets of whole human blood; format: cell-based
Experimental: Flow-Cytometric Immunostimulation Experiments.
CD69 upregulation was determined by flow cytometry and modified for rapid-throughput. Briefly, heparin-anticoagulated whole blood samples were obtained by venipuncture from healthy human volunteers with informed consent and as per guidelines approved by the University of Kansas Human Subjects Experimentation Committee. Serial dilutions of selected imidazopyridine compounds (and imiquimod, used as a reference compound) were performed using a Bio-Tek Precision 2000 XS liquid handler in sterile 96-well polypropylene plates, to which were added 100 μL aliquots of anticoagulated whole human blood. The plates were incubated at 37° C. for 16.5 h. Negative (endotoxin free water) controls were included in each experiment. Following incubation, fluorochrome-conjugated antibodies (CD3-PE, CD56-APC, CD69-PE-Cy7, 10 μL of each antibody, Becton-Dickinson Biosciences, San Jose, Calif.) were added to each well with a liquid handler, and incubated at 37° C. in the dark for 30 min. […] CD69 activation in the major lymphocytic populations, viz., natural killer lymphocytes (NK cells: CD3^−CD56^+), cytokine-induced killer phenotype (CIK cells: CD3^+CD56^+), nominal B lymphocytes (CD3^−CD56^−), and nominal T lymphocytes (CD3^+CD56^−) were quantified using FlowJo v 7.0 software (Treestar, Ashland, Oreg.). […]

[2] = Metabolic stability in peripheral blood mononuclear cells (microdialysis, LC-MS/MS); format: in vitro ADME, human; details: human, peripheral blood mononuclear cells (PBMCs)
[3] = system: peripheral blood mononuclear cells (PBMCs); test: as above; format: in vitro ADME, human; details: PBMCs
[4] = system: human foreskin fibroblasts (HFFs); test: Metabolic stability in human foreskin fibroblasts (microdialysis, LC-MS/MS); format: in vitro ADME
[5] = as above; format: in vitro ADME; details: human, human foreskin fibroblasts (HFFs)
human PBMCs [6] = test: IFN-α induction in human PBMCs (ELISA); format: cell-based; details: PBMC
Experimental: (§1) Fresh human peripheral blood mononuclear cells (hPBMC) were isolated from human blood obtained by venipuncture with informed consent and as per institutional guidelines on Ficoll-Hypaque gradients as described elsewhere. Aliquots of PBMCs (10^5 cells in 100 μL/well) were stimulated for 12 h with graded concentrations of test compounds. Supernatants were isolated by centrifugation, and were assayed in triplicates using either high-sensitivity multi-subtype IFN-α ELISA kits (PBL Interferon Source, Piscataway, N.J. and R&D Systems, Inc., Minneapolis, Minn.), or analyte-specific multiplexed cytokine/chemokine bead array assays as reported by us previously.

[7] = Chemical stability of the free base (autoxidation); format: physicochemical; details: rapid formation of 3-ol A5 by autoxidation
From the text: A ring-contracted 2-amino-3-alkylindole analogue compound A4, accessed via sequential C-alkylation of commercially available 2-nitrophenylacetonitrile, reduction of the 2-nitro group, and Brønsted acid-promoted, microwave-assisted intramolecular cyclization (Scheme A1).

human TLR8 = molecular target: T1, human TLR8 (Homo sapiens, UniProt Q9NR97); test: Human TLR8 reporter gene assay (NF-κB induction), HEK-Blue-8 cells; format: cell-based
T1 construct: expressed in transfected cells; host or cells: HEK293 (HEK-Blue-8)
T1 sequence (Q9NR97 27-1041): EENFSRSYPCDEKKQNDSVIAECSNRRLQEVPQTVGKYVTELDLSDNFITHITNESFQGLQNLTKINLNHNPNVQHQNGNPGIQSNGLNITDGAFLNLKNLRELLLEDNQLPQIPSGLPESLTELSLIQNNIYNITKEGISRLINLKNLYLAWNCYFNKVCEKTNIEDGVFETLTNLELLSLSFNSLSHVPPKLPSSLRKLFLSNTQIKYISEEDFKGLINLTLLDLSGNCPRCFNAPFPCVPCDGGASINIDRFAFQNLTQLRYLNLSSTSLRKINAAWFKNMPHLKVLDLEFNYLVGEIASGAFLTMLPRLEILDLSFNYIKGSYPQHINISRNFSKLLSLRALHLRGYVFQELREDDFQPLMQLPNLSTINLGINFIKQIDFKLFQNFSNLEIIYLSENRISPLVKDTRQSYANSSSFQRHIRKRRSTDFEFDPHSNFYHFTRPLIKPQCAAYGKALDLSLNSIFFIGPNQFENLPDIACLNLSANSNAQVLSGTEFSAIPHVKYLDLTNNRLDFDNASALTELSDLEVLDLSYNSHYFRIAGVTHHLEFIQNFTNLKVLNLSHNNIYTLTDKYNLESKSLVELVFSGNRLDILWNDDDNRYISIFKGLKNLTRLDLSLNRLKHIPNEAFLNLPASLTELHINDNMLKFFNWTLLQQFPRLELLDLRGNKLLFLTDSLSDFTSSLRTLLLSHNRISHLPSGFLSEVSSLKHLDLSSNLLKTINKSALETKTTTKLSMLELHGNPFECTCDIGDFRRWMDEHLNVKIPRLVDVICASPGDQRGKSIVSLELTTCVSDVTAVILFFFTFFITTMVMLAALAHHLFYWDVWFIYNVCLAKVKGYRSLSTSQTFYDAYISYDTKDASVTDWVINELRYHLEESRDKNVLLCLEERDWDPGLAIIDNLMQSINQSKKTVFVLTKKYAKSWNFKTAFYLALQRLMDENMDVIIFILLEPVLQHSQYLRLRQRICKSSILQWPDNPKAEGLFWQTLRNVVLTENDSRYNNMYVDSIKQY
From the text: Human TLR-7/-8 Reporter Gene Assays (NF-κB Induction).
The induction of NF-κB was quantified using HEK-Blue-7 (hTLR7-specific) and HEK-Blue-8 (hTLR8-specific) cells. HEK293 cells stably co-transfected with human TLR7 or human TLR8, MD2, and secreted alkaline phosphatase (sAP), were maintained in HEK-Blue™ Selection medium containing zeocin and normocin. Stable expression of secreted alkaline phosphatase (sAP) under control of NF-κB/AP-1 promoters is inducible by appropriate TLR agonists, and extracellular sAP in the supernatant is proportional to NF-κB induction.
HEK293 cells stably co-transfected with the appropriate hTLR (or NOD) and secreted alkaline phosphatase (sAP) were maintained in HEK-Blue™ Selection medium. Stable expression of secreted alkaline phosphatase (sAP) under control of NF-κB/AP-1 promoters is inducible by appropriate TLR/NOD agonists, and extracellular sAP in the supernatant is proportional to NF-κB induction.

human PBMCs [8] = test: Proinflammatory cytokine induction in human PBMCs / human blood (bead array); format: cell-based; details: human PBMCs and whole human blood
Experimental: Immunoassays for Interferon (IFN)-α, and Cytokines.
as §1

half-life [2]: 3 h
time by which parent was depleted [3]: ≤ 8 h
number of major metabolites identified by LC-MS/MS ([4]; FIG. 5B, Table A, cell type not stated): 6
parent detected by LC-MS ([4]; HFFs, at 1 hour): nearly undetectable
half-life [5]: < 1 h
Structure (SMILES): CCCCc1nc2c(N)nc(NCc3ccc(CN)cc3)cc2n1Cc1ccccc1 [Compound 19p, N^6-(4-(aminomethyl)benzyl)-1-benzyl-2-butyl-1H-imidazo[4,5-c]pyridine-4,6-diamine]
CD69 expression in natural killer, cytokine-induced killer and B lymphocytic subsets [1]: as active as the reference TLR7 agonist IMDQ
EC50 (human PBMCs [6]): 300 nM

hTLR8 Agonistic Activity (EC50) (human TLR8; human TLR 8-specific reporter gene assays): Unstable
TLR8-agonistic activity of the hydrochloride salt (human TLR8; hydrochloride salt): inactive
Structure (SMILES): CCCCC1C(N)=Nc2ccccc21 (stereo not shown) [Compound A4]
stability of the free-base [7]: exceedingly unstable

EC50 (human TLR8; primary screens, read-out: TLR8-agonistic activity EC50): 1130 nM
Structure (SMILES): CCCCCn1c(N)nc2c(C)cccc21 [Compound A31a, 4-Methyl-1-pentyl-1H-benzo[d]imidazol-2-amine]
CD69 upregulation in natural killer (NK) lymphocytes [1]: complete absence
induction of proinflammatory cytokines, IL-12p40 and IFN-γ (human PBMCs [8]): induction
